Measurements reported in patent publication US7785639B2, “Composition for treating cancer cells and preparation method for the same” (Kaohsiung Medical University, priority 2005, dated 2010).
In brackets after ≈: the same amount, converted by molar mass.

What was measured:
MCF-10A [1] = test system: MCF-10A
MCF-10A [2] = assay: cells; settings: Homo sapiens, read-out: IC50 MCF-10A
[3] = test system: five human cancer cell lines
Hep G2 = assay: MTT cytotoxic testing, Hep G2; assay type: cell-based; settings: average ± standard deviation (n = 2); for IC50: HepG2, human liver cancer cell line; for IC50 Hep G2: human liver cancer cell line
MDA-MB-231 = assay: MTT cytotoxic testing, MDA-MB-231; assay type: cell-based; settings: average ± standard deviation (n = 2); for IC50: MDA-MB-231, human breast cancer cell line; for IC50 MDA-MB-231: human breast cancer cell line
Hep 3B = assay: MTT cytotoxic testing, Hep 3B; assay type: cell-based; settings: human liver cancer cell line, average ± standard deviation (n = 2); for IC50: Hep3B
A549 = assay: MTT cytotoxic testing, A549; assay type: cell-based; settings: average ± standard deviation (n = 2); for IC50: A549, human lung cancer cell line; for IC50 A549: human lung cancer cell line
MCF-7 = assay: MTT cytotoxic testing, MCF-7; assay type: cell-based; settings: average ± standard deviation (n = 2); for IC50: MCF7, human breast cancer cell line; for IC50 MCF-7: human breast cancer cell line

| SMILES | cytotoxicity to normal human breast epidermal cells (MCF-10A [1]) | IC50 (MCF-10A [2]) [µg/mL] | cytotoxic activities on cancer cells [3] | IC50 (Hep G2) [µg/mL] | IC50 (MDA-MB-231) [µg/mL] | IC50 (Hep 3B) [µg/mL] | IC50 (A549) [µg/mL] | IC50 (MCF-7) [µg/mL] | IC50 Hep G2 (Hep G2) [µg/mL] | IC50 MDA-MB-231 (MDA-MB-231) | IC50 Hep 3B (Hep 3B) [µg/mL] | IC50 A549 (A549) [µg/mL] | IC50 MCF-7 (MCF-7) |
| --- | --- | --- | --- | --- | --- | --- | --- | --- | --- | --- | --- | --- | --- |
| O=C1C=CC(O)(c2cc(=O)c3c(O)cc(O)cc3o2)C=C1 [Compound A, Protoapigenone] | weak cytotoxicity | 7.9 ± 1.3 (≈ 27.6 µM) | good cytotoxic activities | 1.6 ± 0.33 (≈ 5.59 µM) | 0.27 ± 0.02 (≈ 0.943 µM) | 0.23 ± 0.01 (≈ 0.804 µM) | 3.88 ± 0.02 (≈ 13.6 µM) | 0.78 ± 0.02 (≈ 2.72 µM) | – | – | – | – | – |
| COC1CC(=O)C=CC1(O)c1cc(=O)c2c(O)cc(O)cc2o1 (stereo not drawn) [Compound B, 5′,6′-Dihydro-6′-methoxy-protoapigenone] | – | – | good cytotoxic activities | – | – | – | – | – | 5.88 ± 0.47 (≈ 18.5 µM) | 1.30 ± 0.10 µg/mL (≈ 4.08 µM) | 1.74 ± 0.08 (≈ 5.47 µM) | 13.30 ± 0.23 (≈ 41.8 µM) | 5.92 ± 0.29 µg/mL (≈ 18.6 µM) |
| O=c1cc(C2(O)C=CC(O)C=C2)oc2cc(O)cc(O)c12 (stereo not drawn) [Compound C, Protoapigenin] | – | – | good cytotoxic activities | – | – | – | – | – | 1.60 ± 0.33 (≈ 5.55 µM) | — (Without the cytotoxical activity in the concentration of 20 μg/ml) | 20.00 ± 0.58 (≈ 69.4 µM) | 18.84 ± 0.60 (≈ 65.4 µM) | — (Without the cytotoxical activity in the concentration of 20 μg/ml) |
| COC1(OC)CCC(O)(c2cc(=O)c3c(O)cc(O)cc3o2)CC1 [Compound D, 5,7-dihydroxy-2-(1-hydroxy-4,4-dimethoxy-cyclohexyl)-chromen-4-one] | – | – | – | > 20 | > 20 | > 20 | > 20 | > 20 | – | – | – | – | – |
| COc1cccc2c1C(=O)c1c(O)c3c(c(O)c1C2=O)C[C@@](O)(C(=O)CO)C[C@@H]3O[C@H]1C[C@H](N)[C@H](O)[C@H](C)O1 [Compound E, Doxorubicin, reference compound] | – | – | – | 0.15 (≈ 0.276 µM) | 0.31 ± 0.02 (≈ 0.57 µM) | 0.26 ± 0.06 (≈ 0.478 µM) | 0.36 ± 0.04 (≈ 0.662 µM) | 0.32 ± 0.08 (≈ 0.589 µM) | – | – | – | – | – |
